Data: US20100323989A1, “PHARMACEUTICAL COMBINATIONS USEFUL FOR TREATING HCV” (Gilead Sciences, Inc., priority 2009, published 2010)
Like-named read-outs stand apart in the source and are kept apart here.

Key:
[1] = test system: panel of protease inhibitor resistance-associated-mutations (NS3) in 1b PI-luc replicon; details: all NS3 protease mutants tested
[2] = Pharmacokinetic drug-drug interaction study, single dose with multiple-dose partner, healthy subjects (Example 6); assay type: in vivo, human; details: for Compound 1 AUC0-last, % Geometric Least-Squares Mean Ratio (90% CI) / Compound 1 AUCinf, % Geometric Least-Squares Mean Ratio (90% CI) / Compound 1 Cmax, % Geometric Least-Squares Mean Ratio (90% CI): Compound 1 + Compound 2 / Compound 1 alone; for AUC(0-t) / AUC(0-inf) / Cmax / half-life: human, plasma
Method: In this study, healthy subjects were randomized into one of the following three treatment groups: […] Treatment Group 3 (N=20): […] Serial blood samples for analysis of plasma concentrations of Compound 2 were collected up to 72 hours post-morning dose on Days 1 and 10 to determine systemic drug exposure.

[3] = Multiple-dose pharmacokinetic interaction study in healthy subjects (Example 5); assay type: in vivo, human
Method: Serial blood samples for analysis of plasma concentrations of Compound 2 were collected up to 120 hours after the morning dose on Days 7 and 21 to determine systemic drug exposure. Glossary of Abbreviations and Definitions of Terms Used in Example 5 • AUCtau The area under the concentration versus time curve over the dosing interval • AUC0-last Area under the concentration versus time curve from time zero to the last quantifiable concentration • AUCinf Area under the concentration versus time curve extrapolated to infinite time, calculated as AUC0-last+(Clast/λz) • BID twice daily • CI confidence interval • Cmax The maximum observed concentration of drug in plasma • Ctau The observed drug concentration at the end of the dosing interval • CV coefficient of variation

[4] = test system: mutant 1b Con-1 PI-Luc replicons (major HCV NS5B polymerase inhibitor resistance mutations); assay: Transient transfection replicon assay, panel of NS5B polymerase inhibitor resistance mutations; assay type: cell-based, HCV genotype 1b; details: against all NS5B mutations tested
[5] = Group 1, Compound 1 20 mg with Compound 2 150 mg BID vs Compound 1 20 mg alone
[6] = Group 2, Compound 1 40 mg with Compound 2 150 mg BID vs Compound 1 40 mg alone
[7] = Compound 1 (40 mg BID) + Compound 2 (75 mg BID) / Compound 2 alone
[8] = coadministration of Compound 1 (40 mg BID) with Compound 2 (75 mg BID) vs Compound 2 alone
[9] = Group 3, Compound 1 + Compound 2 / Compound 2 alone
[10] = Group 3, Compound 2 75 mg with Compound 1 40 mg BID vs Compound 2 75 mg alone

Question: What does the source list for `Fc1ccccc1-c1nc2ccn(Cc3ccc(-c4ccc(C(F)(F)F)cc4C(F)(F)F)nn3)cc-2n1` [Compound 1, 5-({6-[2,4-bis(trifluoromethyl)phenyl]pyridazin-3-yl}methyl)-2-(2-fluorophenyl)-5H-imidazo[4,5-c]pyridine]?
Answer: fold change in EC50 values from wild-type [1]: ≤ 1.2 fold; Compound 1 AUC0-last, % Geometric Least-Squares Mean Ratio (90% CI) ([2]; Group 1 (Compound 1 20 mg)): 250.5 (217.8, 288.0) %; Compound 1 AUCinf, % Geometric Least-Squares Mean Ratio (90% CI) ([2]; Group 1 (Compound 1 20 mg)): 321.1 (262.8, 392.2) %; Compound 1 Cmax, % Geometric Least-Squares Mean Ratio (90% CI) ([2]; Group 1 (Compound 1 20 mg)): 123.1 (111.6, 135.7) %; increase in AUC0-last of Compound 1 [2, 5]: 151%; increase in AUCinf of Compound 1 [2, 5]: 221%; increase in Cmax of Compound 1 [2, 5]: 23%; Compound 1 AUC0-last, % Geometric Least-Squares Mean Ratio (90% CI) ([2]; Group 2 (Compound 1 40 mg)): 253.0 (229.3, 279.1) %; Compound 1 AUCinf, % Geometric Least-Squares Mean Ratio (90% CI) ([2]; Group 2 (Compound 1 40 mg)): 350.4 (300.2, 409.1) %; Compound 1 Cmax, % Geometric Least-Squares Mean Ratio (90% CI) ([2]; Group 2 (Compound 1 40 mg)): 136.8 (122.7, 152.6) %; increase in AUC0-last of Compound 1 [2, 6]: 153%; increase in AUCinf of Compound 1 [2, 6]: 250%; increase in Cmax of Compound 1 [2, 6]: 37%; increase in median Compound 1 terminal phase elimination half-life ([2]; both groups (20 and 40 mg), with Compound 2 150 mg BID vs Compound 1 alone): approximately 2 fold; AUC(0-t) ([2]; 20 mg, Compound 1 AUC0-last, Mean (% CV), Group 1, human, single-dose Compound 1 20 mg alone): 12800 ng·h/mL; AUC(0-inf) ([2]; 20 mg, Compound 1 AUCinf, Mean (% CV), Group 1, human, single-dose Compound 1 20 mg alone): 13400 ng·h/mL; Cmax ([2]; 20 mg, Compound 1 Cmax, Mean (% CV), Group 1, human, single-dose Compound 1 20 mg alone): 940 ng/mL; half-life ([2]; 20 mg, Compound 1 T1/2, Median (min, max), Group 1, human, single-dose Compound 1 20 mg alone): 16.6 h; AUC(0-t) ([2]; 40 mg, Compound 1 AUC0-last, Mean (% CV), Group 2, human, single-dose Compound 1 40 mg alone): 34100 ng·h/mL; AUC(0-inf) ([2]; 40 mg, Compound 1 AUCinf, Mean (% CV), Group 2, human, single-dose Compound 1 40 mg alone): 35500 ng·h/mL; Cmax ([2]; 40 mg, Compound 1 Cmax, Mean (% CV), Group 2, human, single-dose Compound 1 40 mg alone): 1980 ng/mL; half-life ([2]; 40 mg, Compound 1 T1/2, Median (min, max), Group 2, human, single-dose Compound 1 40 mg alone): 19.2 h; AUC(0-t) ([2]; Compound 1 AUC0-last, Mean (% CV), Group 1, human, single-dose Compound 1 20 mg + multiple-dose Compound 2 150 mg BID): 32600 ng·h/mL; AUC(0-t) ([2]; Compound 1 AUC0-last, Mean (% CV), Group 2, human, single-dose Compound 1 40 mg + multiple-dose Compound 2 150 mg BID): 87500 ng·h/mL; AUC(0-inf) ([2]; Compound 1 AUCinf, Mean (% CV), Group 1, human, single-dose Compound 1 20 mg + multiple-dose Compound 2 150 mg BID): 49500 ng·h/mL; AUC(0-inf) ([2]; Compound 1 AUCinf, Mean (% CV), Group 2, human, single-dose Compound 1 40 mg + multiple-dose Compound 2 150 mg BID): 137000 ng·h/mL; Cmax ([2]; Compound 1 Cmax, Mean (% CV), Group 1, human, single-dose Compound 1 20 mg + multiple-dose Compound 2 150 mg BID): 1140 ng/mL; Cmax ([2]; Compound 1 Cmax, Mean (% CV), Group 2, human, single-dose Compound 1 40 mg + multiple-dose Compound 2 150 mg BID): 2730 ng/mL; half-life ([2]; Compound 1 T1/2, Median (min, max), Group 1, human, single-dose Compound 1 20 mg + multiple-dose Compound 2 150 mg BID): 35.8 h; half-life ([2]; Compound 1 T1/2, Median (min, max), Group 2, human, single-dose Compound 1 40 mg + multiple-dose Compound 2 150 mg BID): 39.3 h

Question: For `COc1ccc2c(O[C@@H]3C[C@H]4C(=O)N[C@]5(P(=O)(O)Cc6c(F)cccc6F)C[C@H]5CCCCCCC[C@H](NC(=O)OC5CCCC5)C(=O)N4C3)cc(-c3csc(NC(C)C)n3)nc2c1Cl` [Compound 2], which “Compound 2 AUCtau, % Geometric Least Square Mean Ratio (90% CI)” value [3, 7] is on record?
Answer: 75.9 (62.0, 93.0) %

Question: And the “Compound 2 Cmax, % Geometric Least Square Mean Ratio (90% CI)” value [3, 7]?
Answer: 80.0 (66.7, 95.6) %

Question: What about the “Compound 2 Ctau, % Geometric Least Square Mean Ratio (90% CI)” value [3, 7] of the same molecule?
Answer: 70.0 (55.9, 87.5) %

Question: What about the “decrease in AUCtau of Compound 2” value [3, 8] of the same molecule?
Answer: 24%

Question: What about the “decrease in Cmax of Compound 2” value [3, 8] of the same molecule?
Answer: 20%

Question: What about the “decrease in Ctau of Compound 2” value [3, 8] of the same molecule?
Answer: 30%

Question: What about the AUC ([3]; plasma, human, oral, Compound 2 (75 mg BID) alone, Day 7, read-out: Compound 2 AUCtau, Mean (% CV)) of the same molecule?
Answer: 35300 ng·h/mL

Question: And the “fold change in EC50 values from wild-type” value [4]?
Answer: ≤ 2.1 fold

Question: And the “Compound 2 AUC0-last, % Geometric Least-Squares Mean Ratio (90% CI)” value [2, 9]?
Answer: 83.8 (75.5, 93.2) %

Question: And the “Compound 2 AUCinf, % Geometric Least-Squares Mean Ratio (90% CI)” value [2, 9]?
Answer: 84.9 (76.6, 94.1) %

Question: What about the “Compound 2 Cmax, % Geometric Least-Squares Mean Ratio (90% CI)” value [2, 9] of the same molecule?
Answer: 81.3 (72.5, 91.1) %

Question: What about the “Median terminal elimination half-lives of Compound 2, comparison between the two treatments” value ([2]; Group 3, Compound 2 75 mg alone vs with Compound 1 40 mg BID) of the same molecule?
Answer: similar

Question: And the “decrease in AUC0-last of Compound 2” value [2, 10]?
Answer: 16%

Question: What about the “decrease in AUCinf of Compound 2” value [2, 10] of the same molecule?
Answer: 15%

Question: And the “decrease in Cmax of Compound 2” value [2, 10]?
Answer: 19%

Question: And the AUC(0-t) ([2]; 75 mg, Group 3, human, Compound 2 75 mg SD alone, read-out: Compound 2 AUC0-last, Mean (% CV))?
Answer: 8790 ng·h/mL

Question: And the AUC(0-inf) ([2]; 75 mg, Group 3, human, Compound 2 75 mg SD alone, read-out: Compound 2 AUCinf, Mean (% CV))?
Answer: 9460 ng·h/mL

Question: What about the Cmax ([2]; 75 mg, Group 3, human, Compound 2 75 mg SD alone, read-out: Compound 2 Cmax, Mean (% CV)) of the same molecule?
Answer: 1040 ng/mL

Question: And the half-life ([2]; 75 mg, Group 3, human, Compound 2 75 mg SD alone, read-out: Compound 2 T1/2, Median (min, max) (converted))?
Answer: 5.05 h

Question: And the AUC(0-t) ([2]; Group 3, human, Compound 2 75 mg SD + Compound 1 40 mg BID, read-out: Compound 2 AUC0-last, Mean (% CV))?
Answer: 7270 ng·h/mL

Question: What about the AUC(0-inf) ([2]; Group 3, human, Compound 2 75 mg SD + Compound 1 40 mg BID, read-out: Compound 2 AUCinf, Mean (% CV)) of the same molecule?
Answer: 7920 ng·h/mL

Question: What about the Cmax ([2]; Group 3, human, Compound 2 75 mg SD + Compound 1 40 mg BID, read-out: Compound 2 Cmax, Mean (% CV)) of the same molecule?
Answer: 830 ng/mL

Question: And the half-life ([2]; Group 3, human, Compound 2 75 mg SD + Compound 1 40 mg BID, read-out: Compound 2 T1/2, Median (min, max) (converted))?
Answer: 6.06 h
